The values that follow come from ChEMBL document CHEMBL3045260, “Synthesis, anti-microbial evaluation, and QSAR studies of 4-amino-3-hydroxy-naphthalene-1-sulfonic acid derivatives” (2012).

Common to all, as to assay type: functional
Assay [1] has as its system Bacillus subtilis. The assay can be described thus: Antibacterial activity against Bacillus subtilis MTCC 2063 after 24 hr by tube dilution method.
The test system of assay [2] is Escherichia coli. The experiment in a line: Antibacterial activity against Escherichia coli MTCC 1652 after 24 hr by tube dilution method.
For assay [3], the system named is Escherichia coli. The assay can be described thus: Ratio of MBC to MIC for Escherichia coli MTCC 1652.
Assay [4] concerns Bacillus subtilis. The assay can be described thus: Bactericidal activity against Bacillus subtilis MTCC 2063.
The subject of assay [5] is Candida albicans. The experiment in a line: Antifungal activity against Candida albicans MTCC 227 after 48 hr by tube dilution method.
For assay [6], the system named is Escherichia coli. The assay can be described thus: Bactericidal activity against Escherichia coli MTCC 1652.
Assay [7] relates to Staphylococcus aureus. The experiment in a line: Bactericidal activity against Staphylococcus aureus MTCC 2901.
Assay [8] deals with Aspergillus niger. The assay can be described thus: Fungicidal activity against Aspergillus niger MTCC 8189.
Assay [9] relates to Aspergillus niger. The assay can be described thus: Ratio of MFC to MIC for Aspergillus niger MTCC 8189.
Assay [10] has as its system Staphylococcus aureus. The experiment in a line: Ratio of MBC to MIC for Staphylococcus aureus MTCC 2901.
Assay [11] relates to Candida albicans. The assay can be described thus: Ratio of MFC to MIC for Candida albicans MTCC 227.
Assay [12] deals with Staphylococcus aureus. The experiment in a line: Antibacterial activity against Staphylococcus aureus MTCC 2901 after 24 hr by tube dilution method.
The subject of assay [13] is Bacillus subtilis. The assay can be described thus: Ratio of MBC to MIC for Bacillus subtilis MTCC 2063.
In assay [14] the test system is Candida albicans. The assay can be described thus: Fungicidal activity against Candida albicans MTCC 227.
Assay [15] has as its system Aspergillus niger. The experiment in a line: Antifungal activity against Aspergillus niger MTCC 8189 after 7 days by tube dilution method.

SMILES strings stand for the structures. Converted amounts (≈) assume the structure as drawn.

Consider `COc1cccc(/C=N/c2c(O)cc(S(=O)(=O)O)c3ccccc23)c1O`, for which the “-logMIC” value in the assay on Bacillus subtilis [1] worked out at 1.48; in the assay with Escherichia coli [2], 1.48; in the assay with Candida albicans [5], 1.48; in the assay with Staphylococcus aureus [12], 1.17; in the assay on Aspergillus niger [15] it was 1.48. Further, the Ratio in the assay on Escherichia coli [3], in the assay on Aspergillus niger [9], with Staphylococcus aureus [10], in the assay on Candida albicans [11] and in the assay on Bacillus subtilis [13] was 3 throughout. Also, the MBC (in general, the lowest tested concentration that kills the bacteria rather than only halting them) against Bacillus subtilis [4] was above 140 µM; in the assay on Escherichia coli [6], above 140 µM; against Staphylococcus aureus [7], 140 µM (≈ 52.3 µg/mL). Further, the MFC against Aspergillus niger [8] and in the assay with Candida albicans [14] was above 140 µM each time.
As to `COc1ccccc1/C=N/c1c(O)cc(S(=O)(=O)O)c2ccccc12`, the “-logMIC” value with Bacillus subtilis [1] is 1.46; in the assay on Escherichia coli [2], 1.46; in the assay with Candida albicans [5], 1.46; in the assay with Staphylococcus aureus [12], 1.16; in the assay with Aspergillus niger [15], 1.46. The Ratio with Escherichia coli [3], in the assay on Aspergillus niger [9], in the assay on Staphylococcus aureus [10], in the assay on Candida albicans [11] and in the assay on Bacillus subtilis [13] was 3 throughout. For the same compound, the MBC with Bacillus subtilis [4], with Escherichia coli [6] and with Staphylococcus aureus [7] was above 130 µM throughout. The MFC with Aspergillus niger [8] and against Candida albicans [14] was above 130 µM each time.
`O=S(=O)(O)c1cc(O)c(/N=C/c2cccc(O)c2)c2ccccc12`: the “-logMIC” value in the assay with Bacillus subtilis [1] turned out to be 1.44; in the assay with Escherichia coli [2], 1.44; in the assay with Candida albicans [5], 1.44; with Staphylococcus aureus [12] it was 1.14; in the assay with Aspergillus niger [15], 1.44. Moreover, the Ratio in the assay on Escherichia coli [3], in the assay on Aspergillus niger [9], with Staphylococcus aureus [10], in the assay on Candida albicans [11] and in the assay with Bacillus subtilis [13] was 3 in each case. Besides, the MBC in the assay on Bacillus subtilis [4], in the assay with Escherichia coli [6] and with Staphylococcus aureus [7] was above 130 µM in each case. Besides, the MFC (in general, the lowest tested concentration that kills the fungus rather than only halting it) against Aspergillus niger [8] was 130 µM (≈ 44.6 µg/mL); against Candida albicans [14] it was above 130 µM.
As to `COc1cc(/C=N/c2c(O)cc(S(=O)(=O)O)c3ccccc23)ccc1O`, the “-logMIC” value in the assay on Bacillus subtilis [1] was determined as 1.48; with Escherichia coli [2], 1.48; in the assay on Candida albicans [5] it was 1.48; with Staphylococcus aureus [12], 1.17; with Aspergillus niger [15], 1.48. The Ratio in the assay with Escherichia coli [3], with Aspergillus niger [9], with Staphylococcus aureus [10], with Candida albicans [11] and with Bacillus subtilis [13] was 3 each time. Also, the MBC in the assay with Bacillus subtilis [4] was above 160 µM; in the assay with Escherichia coli [6], above 160 µM; against Staphylococcus aureus [7], 160 µM (≈ 59.7 µg/mL). Further, the MFC against Aspergillus niger [8] is 160 µM (≈ 59.7 µg/mL); against Candida albicans [14], above 160 µM.
Consider `CCOc1cc(/C=N/c2c(O)cc(S(=O)(=O)O)c3ccccc23)ccc1O`, for which the “-logMIC” value in the assay with Bacillus subtilis [1] was 1.49; in the assay with Escherichia coli [2] it was 1.49; in the assay with Candida albicans [5], 1.49; in the assay with Staphylococcus aureus [12], 1.19; in the assay on Aspergillus niger [15], 1.49. Further, the Ratio in the assay on Escherichia coli [3], in the assay on Aspergillus niger [9], in the assay on Staphylococcus aureus [10], with Candida albicans [11] and in the assay on Bacillus subtilis [13] was 3 in each case. Further, the MBC in the assay on Bacillus subtilis [4] is above 130 µM; in the assay on Escherichia coli [6], above 130 µM; with Staphylococcus aureus [7], 130 µM (≈ 50.4 µg/mL). For the same compound, the figures for the MFC in the assay on Aspergillus niger [8] and with Candida albicans [14] were 30 µM (≈ 11.6 µg/mL) and above 130 µM, respectively.
With `OC(Cn1cncn1)(Cn1cncn1)c1ccc(F)cc1F` [FLUCONAZOLE], the “-logMIC” value in the assay with Candida albicans [5] and with Aspergillus niger [15] was 2.64 throughout. For the same compound, the MFC in the assay with Aspergillus niger [8] was found to be 40 µM (≈ 12.3 µg/mL).
In the case of `CCn1cc(C(=O)O)c(=O)c2cc(F)c(N3CCNCC3)cc21` [NORFLOXACIN], the “-logMIC” value in the assay on Bacillus subtilis [1], in the assay on Escherichia coli [2] and in the assay with Staphylococcus aureus [12] was 2.61 throughout. Moreover, the MBC against Bacillus subtilis [4], against Escherichia coli [6] and against Staphylococcus aureus [7] was 19 µM (≈ 6.07 µg/mL) each time.
